Entries after “also recorded” stand apart in the source; their conditions may differ. Where two headings read alike, the source gives them in different places.

For orientation: IC50 means the concentration needed to halve the response being measured.

Data set [1] deals with H527 (Skin) normal cells. Kind of data set: alamarBlue growth inhibition, H527. Type of data set: cell-based, human. The settings on record: 120 hours. On the procedure:
(§1) Growth Inhibition Studies. Cells growing exponentially were transferred to 384-well flat bottom tissue culture plates. All cell types were plated at a density of 500 cells per well in 25 μL of complete medium (RPMI 1640+10% fetal bovine serum+antibiotics/antimycotics). After 24 hours (day 0), 25 μL of complete medium containing the experimental compounds over the dose range of 10^ñ3 to 10^ñ10 M were added in triplicate. […] 5 μL of the redox indicator, alamarBlue, was added to each well (10% v/v). After 4 hours incubation at 37° C., fluorescence was monitored at 535 nm excitation and 595 nm emission.
(§2) Concentration vs. relative fluorescence units (RFU) were plotted, and sigmoid curves were fit using the Hill equation.

For data set [2], the system named is COLO320 (Colon) tumor cells. Kind of data set: alamarBlue growth inhibition, COLO320. Type of data set: cell-based, human. The settings on record: 120 hours. On the procedure:
as §1, §2

In data set [3] the test system is MRC9 (Lung) normal cells. Kind of data set: alamarBlue growth inhibition, MRC9. Format: cell-based, human. The conditions noted are these: 120 hours. On the procedure:
as §1, §2
(Resazurin is reduced to fluorescent resorufin, in cell work by metabolically active cells.)

Data set [4] deals with NHLF (Lung) normal cells. Kind of data set: alamarBlue growth inhibition, NHLF. The settings on record: 120 hours. Type of data set: cell-based, human. On the procedure: as §1, §2
In data set [5] the test system is SW527 (Breast) tumor cells. The experiment in a line: alamarBlue growth inhibition, SW527. The settings on record: 120 hours. Format: cell-based, human. The protocol: as §1, §2
Data set [6] relates to MDAMB468 (Breast) tumor cells. The experiment in a line: alamarBlue growth inhibition, MDAMB468. Type of data set: cell-based, human. The conditions noted are these: 120 hours. The protocol: as §1, §2
In data set [7] the test system is NHA (Brain) normal cells. Kind of data set: alamarBlue growth inhibition, NHA. Type of data set: cell-based, human. The settings on record: 120 hours. The protocol: as §1, §2
Data set [8] relates to SKCO1 (Colon) tumor cells. Kind of data set: alamarBlue growth inhibition, SKCO1. Type of data set: cell-based, human. The conditions noted are these: 120 hours. On the procedure: as §1, §2
Data set [9] concerns the target T1, TS in intact RKO cells (Homo sapiens, UniProt P04818).
T1 construct: endogenous in cells; host or cells: RKO cells
Kind of data set: TS activity in intact cells by tritium release. Type of data set: cell-based. The conditions noted are these: release of [^3H]2O from 5-[^3H]deoxyuridine. The protocol: TS activity was measured in intact RKO cells by release of [^3H]2O from 5-[^3H]deoxyuridine as described in Materials and Methods. NB1011 was washed out of cells by replacing with fresh media, incubating for 60 minutes at 37 ° C., then repeating this procedure. Control and untreated cells were subjected to the same washing procedure.
TS Activity Assay by Tritium Release from dUMP-^3H. Cells were plated in 24 well plates to a density of 30,000 cells/plate and incubated for 16 hours to allow adhesion to the plastic surface of the plate.
Immediately prior to the thymidylate synthase assay, the media was replaced with RPMI+10% dialyzed fetal calf serum. 0.5 μCi of 5-[^3H]deoxyuridine was added to each well, and plates were incubated for 60 minutes at 37° C. without additional CO2. [^3H] release was measured by adsorbing 5-[^3H]deoxyuridine to activated charcoal (10% in 1×PBS) for 5 minutes at room temperature. After centrifugation for 5 minutes at 13,000 RPM, the amount of [^3H] in the supernatant was determined by liquid scintillation counting.
The results described above indicate that BVdUMP, generated intracellularly from NB1011, is unlikely to inactivate TS during its transformation to product(s). […] In these experiments exogenous 5-(3H) deoxyuridine is added to cell culture medium and the release of tritiated water is monitored (Carreras, C. W. and Santi, D. V. (1995) and Roberts (1966)). […]

The test system of data set [10] is TDX-resistant MCF7 breast tumor cells. Kind of data set: Tomudex inhibition of NB1011 cytotoxicity (Tomudex rescue assay, alamarBlue). The settings on record: for IC50: read-out: NB1011 IC50. The protocol:
Tomudex Inhibition of NB1011 Cytotoxicity. MCF7-TDX were transferred to a 384 well assay plate at 500 cells in 25 μL complete medium per well. After 24 hours (day 0), 25 μL complete medium containing a combination of NB1011 in doubling serial dilutions from 1 mM and tomudex at discrete concentrations (0,1,10,100,1000 nM) were added in duplicate. Drug exposure time was 120 hours (day 5) after which growth inhibition was measured with alamarBlue as described above in Growth Inhibition Studies (above).
Tomudex is a chemotherapeutic that acts primarily via inhibition of TS. If NB1011 exerts cytotoxicity via the TS enzyme, then inhibition of TS with Tomudex should decrease NB1011-mediated cytotoxicity. […] Cells were plated and exposed to indicated concentrations of compound(s) as described above.

Data set [11] deals with MCF7 TDX/1011 cells (MCF7 TDX selected for resistance to NB1011). Kind of data set: alamarBlue cytotoxicity, MCF7 TDX/1011. Type of data set: cell-based, human. The protocol: as §1, §2
Reversal of Resistance. The origin and characteristics of the human breast cancer MCF7 TDX cell line have been previously described (Drake, et al. (1996)). Briefly, MCF-7 breast cancer cells were selected in vitro for resistance to Tomudex by continuous exposure to stepwise increases in TDX concentrations up to 2.0 μM. […] After a dramatic initial cell killing effect, resistant colonies emerged, and vigorously growing monolayers were formed. TS protein level and IC50 for 5-FU, TDX, and NB1011 were determined for the resultant MCF7 TDX/1011 cell line as described in above by western blot and the alamarBlue cytotoxicity assay, respectively.

T1 sequence (P04818 2-313 limits assumed): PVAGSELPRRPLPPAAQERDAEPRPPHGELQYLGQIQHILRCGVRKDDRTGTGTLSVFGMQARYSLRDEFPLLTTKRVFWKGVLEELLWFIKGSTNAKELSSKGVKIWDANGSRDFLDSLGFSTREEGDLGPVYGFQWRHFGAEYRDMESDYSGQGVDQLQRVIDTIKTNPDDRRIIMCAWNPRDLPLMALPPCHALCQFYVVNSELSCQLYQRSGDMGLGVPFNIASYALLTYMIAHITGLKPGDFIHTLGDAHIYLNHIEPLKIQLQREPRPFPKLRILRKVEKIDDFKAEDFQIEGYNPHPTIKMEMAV

Turning to “5-(2-Bromovinyl)-2′-deoxyuridine phenyl N-methoxy-L-alaninyl phosphoramidate [NB1011]”, the IC50 is 273 µM in [1]; 401 µM in [2]; 303 µM in data set [3]; 139 µM in data set [4]; 431 µM in [5]; 172 µM in [6]. The IC50 in data set [7] came out at 839 µM; in [8] it was 184 µM; in [10] ([Tomudex] 0 nM) it was 5.7 µM; in [10] ([Tomudex] 1 nM) it was 25.5 µM; in data set [10] ([Tomudex] 10 nM), 87.7 µM; in data set [10] ([Tomudex] 100 nM), 140 µM. Further, the IC50 was 103 µM in [10] ([Tomudex] 1000 nM) and 240 µM in [11]. In [9], the “effect on TS activity in intact cells after wash-out” value is on record as “completely reversible; also recorded: does not irreversibly inactivate the TS enzyme”. In addition, the “inhibition of NB1011-mediated cytotoxicity by blockade of TS with Tomudex” value in data set [10] (maximum (up to)) is recorded as “about 25 fold”.
